pEC50: −log10 of the molar value.
Each molecule was assayed on HCV replicon (HCV 1b-377-neo replicon cells, Huh7) (assay: HCV replicon cell-based FRET assay). Details: Hepatitis C virus, Huh-7.
Experimental: HCV Replion assays were utilized in the present invention, and were prepared, conducted and validated as follows:
An HCV replicon whole cell system was established as described by Lohmann V, Korner F, Koch J, Herian U, Theilmann L, Bartenschlager R., Science 285(5424): 110–3 (1999). This system enabled us to evaluate the effects of our HCV Protease compounds on HCV RNA replication. Briefly, using the HCV strain 1B sequence described in the Lohmann paper (Assession number: AJ238799), an HCV cDNA was synthesized by Operon Technologies, Inc. (Alameda, Calif.), and the full-length replicon was then assembled in plasmid pGem9zf(+) (Promega, Madison, Wis.) using standard molecular biology techniques. The replicon consists of (i) the HCV 5′ UTR fused to the first 12 amino acids of the capsid protein, (ii) the neomycin phosphotransferase gene (neo), (iii) the IRES from encephalomyocarditis virus (EMCV), and (iv) HCV NS3 to NS5B genes and the HCV 3′ UTR. Plasmid DNAs were linearized with ScaI and RNA transcripts were synthesized in vitro using the T7 MegaScript transcription kit (Ambion, Austin, Tex.) according to manufacturer's directions. To generate cell lines, 4×10^6 Huh-7 cells (kindly provided by R. Bartenschlager and available from Health Science Research Resources Bank, Japan Health Sciences Foundation) were electroporated (GenePulser System, Bio-Rad) with 10 microgram(“μg”) of RNA transcript and plated into 100-mm dishes. After 24 h, selective media containing 1.0 milligrams/milliliter (“mg/ml”) G418 was added and media was changed every 3 to 5 days. Approximately 4 weeks after electroporation, small colonies were visible which were isolated and expanded for further analysis. These cell lines were maintained at 37° C., 5% CO2, 100% relative humidity in DMEM (Cat# 11965-084) Gibco-BRL, Rockville, Md., with 10% heat inactivated calf serum (Sigma), 10 ml of 100× penicillin/streptomycin (Cat# 15140-122) Gibco-BRL, Rockville, Md., Geneticin (Cat# 10131-027) Gibco-BRL, Rockville, Md. at 1 mg/ml. One of the cell lines (deposited as ATCC Accession No. PTA-4583 in the American Type Culture Collection) which had approximately 3,000 copies of HCV replicon RNA/cell was used for development of the assay (HCV 1b-377-neo replicon cells).
Huh7 cells, constitutively expressing the HCV replicon, were grown in Dulbecco's Modified Eagle Media (DMEM) containing 10% Fetal calf serum (FCS) and 1 mg/ml G418 (Gibco-BRL). Cells were seeded the night before (1.5×10^4 cells/well) in 96-well tissue-culture sterile plates. Compound and no compound controls were prepared in DMEM containing 4% FCS, 1:100 Penicillin/Streptomysin, 1:100 L-glutamine and 5% DMSO in the dilution plate (0.5% DMSO final concentration in the assay). Compound/DMSO mixes were added to the cells and incubated for 4 days at 37° C. After 4 days, cells were first assessed for cytotoxicity using alamar Blue (Trek Diagnotstic Systems) for a CC50 reading. The toxicity of compound (CC50) was determined by adding 1/10th volume of alamar Blue to the media incubating the cells. After 4 hr, the fluorescence signal from each well was read, with an excitation wavelength at 530 nm and an emission wavelength of 580 nm, using the Cytofluor Series 4000 (Perspective Biosystems). Plates were then rinsed thoroughly with Phosphate-Buffered Saline (PBS) (3 times 150 μl). The cells were lysed with 25 μl of a lysis assay reagent containing an HCV protease substrate (5× cell Luciferase cell culture lysis reagent (Promega #E153A) diluted to 1× with distilled water, NaCl added to 150 mM final, the FRET peptide diluted to 10 μM final from a 2 mM stock in 100% DMSO). The HCV protease substrate (FRET peptide; AnaSpec, Inc. cat #22991, described by Taliani et al. in Anal. Biochem. 240(2):60–67 (1996)) contains a fluorescence donor, EDANS, near one end of the peptide and an acceptor, DABCYL, near the other end. […]

| SMILES | pEC50 |
| --- | --- |
| O=C(N[C@H]1CCCCC/C=C\[C@@H]2C[C@@]2(C(=O)NS(=O)(=O)C2CC2)NC(=O)[C@@H]2C[C@@H](Oc3nccc4ccccc34)CN2C1=O)OC1CCOCC1 [Compound 14, [4-Cyclopropanesulfonylaminocarbonyl-18-(isoquinolin-1-yloxy)-2,15-dioxo-3,16-diaza-tricyclo[14.3.0.0^4,6]nonadec-7-en-14-yl]-carbamic acid tetrahydro-pyran-4-yl ester] | > 7.30 |
| COc1ccc2c(O[C@@H]3C[C@H]4C(=O)N[C@]5(C(=O)NS(=O)(=O)C6CC6)C[C@H]5/C=C\CCCCC[C@H](NC(=O)OC(C)(C)C)C(=O)N4C3)nccc2c1 [Compound 17B, [4-Cyclopropanesulfonylaminocarbonyl-18-(6-methoxy-isoquinolin-1-yloxy)-2,15-dioxo-3,16-diaza-tricyclo[14.3.0.0^4,6]nonadec-7-en-14-yl]-carbamic acid tert-butyl ester] | > 7.30 |
| CC(C)(C)OC(=O)N[C@H]1CCCCC/C=C\[C@@H]2C[C@@]2(C(=O)NS(=O)(=O)C2CC2)NC(=O)[C@@H]2C[C@@H](Oc3nc(-c4ccccc4)cc4ccccc34)CN2C1=O [Compound 58, [(Z)-(1S,4R,14S,18R)-4-cyclopropanesulfonylaminocarbonyl-2,15-dioxo-18-(3-phenyl-isoquinolin-1-yloxy)-3,16-diaza-tricyclo[14.3.0.0^4,6]nonadec-7-en-14-yl]-carbamic acid tert-butyl ester] | > 7.30 |
| CS(=O)(=O)NC1CCCCCC=CC2CC2(C(=O)NS(=O)(=O)C2CC2)NC(=O)C2CC(Oc3nccc4ccccc34)CN2C1=O (stereo not drawn) [Compound 25] | 5.30 to 6.30 |
| CC(C)(C)COC(=O)N[C@H]1CCCCC/C=C\[C@@H]2C[C@@]2(C(=O)NS(=O)(=O)C2CC2)NC(=O)[C@@H]2C[C@@H](Oc3nccc4ccccc34)CN2C1=O [Compound 13, [4-Cyclopropanesulfonylaminocarbonyl-18-(isoquinolin-1-yloxy)-2,15-dioxo-3,16-diaza-tricyclo[14.3.0.0^4,6]nonadec-7-en-14-yl]-carbamic acid 2,2-dimethyl-propyl ester] | > 7.30 |
| CC(C)(C)OC(=O)N[C@H]1CCCCC/C=C\[C@@H]2C[C@@]2(C(=O)NS(C)(=O)=O)NC(=O)[C@@H]2C[C@@H](Oc3nccc4ccccc34)CN2C1=O [Compound 2, [18-(Isoquinolin-1-yloxy)-4-methanesulfonylaminocarbonyl-2,15-dioxo-3,16-diaza-tricyclo[14.3.0.0^4,6]nonadec-7-en-14-yl]-carbamic acid tert-butyl ester] | 6.30 to 7.30 |
| COc1ccc2c(OC3CC4C(=O)NC5(C(=O)NS(=O)(=O)C6CC6)CC5C=CCCCSCC(NC(=O)OC(C)C)C(=O)N4C3)nccc2c1 (stereo not drawn) [Compound 74] | > 7.30 |
| COc1ccc2c(OC3CC4C(=O)NC5(C(=O)NS(=O)(=O)C6CC6)CC5C=CCOCCCC(NC(=O)NC5CCCC5)C(=O)N4C3)nccc2c1 (stereo not drawn) [Compound 33] | > 7.30 |
| COc1ccc2c(OC3CC4C(=O)NC5(C(=O)NS(=O)(=O)C6(C)CC6)CC5C=CCCCS(=O)(=O)CC(NC(=O)OC(C)(C)C)C(=O)N4C3)nccc2c1 (stereo not drawn) [Compound 49] | 5.30 to 6.30 |
| COc1ccc2c(OC3CC4C(=O)NC5(C(=O)NS(=O)(=O)C6CC6)CC5C=CCCCOC(C)C(NC(=O)OC(C)(C)C)C(=O)N4C3)nccc2c1 (stereo not drawn) [Compound 62] | 6.30 to 7.30 |
| O=C(N[C@H]1CCCCC/C=C\[C@@H]2C[C@@]2(C(=O)NS(=O)(=O)C2CC2)NC(=O)[C@@H]2C[C@@H](Oc3nccc4ccccc34)CN2C1=O)O[C@H]1CCOC1 [Compound 15, [4-Cyclopropanesulfonylaminocarbonyl-18-(isoquinolin-1-yloxy)-2,15-dioxo-3,16-diaza-tricyclo[14.3.0.0^4,6]nonadec-7-en-14-yl]-carbamic acid tetrahydro-furan-3-yl ester] | > 7.30 |
| COc1ccc2c(OC3CC4C(=O)NC5(C(=O)O)CC5C=CCCCSCC(NC(=O)OC(C)(C)C)C(=O)N4C3)nccc2c1 (stereo not drawn) [Compound 18A, 14-tert-Butoxycarbonylamino-18-(6-methoxy-isoquinolin-1-yloxy)-2,15-dioxo-12-thia-3,16-diaza-tricyclo[14.3.0.0^4,6]nonadec-7-ene-4-carboxylic acid] | 5.30 to 6.30 |
| CC(C)(C)OC(=O)N[C@H]1CCCCC/C=C\[C@@H]2C[C@@]2(C(=O)NS(=O)(=O)C2CC2)NC(=O)[C@@H]2C[C@@H](Oc3nccc4ccccc34)CN2C1=O [Compound 4, [4-Cyclopropanesulfonylaminocarbonyl-18-(isoquinolin-1-yloxy)-2,15-dioxo-3,16-diaza-tricyclo[14.3.0.0^4,6]nonadec-7-en-14-yl]-carbamic acid tert-butyl ester] | > 7.30 |
| COc1ccc2c(OC3CC4C(=O)NC5(C(=O)NS(=O)(=O)C6CC6)CC5C=CCOCCCC(NC(=O)OC(C)(C)C(F)(F)F)C(=O)N4C3)nccc2c1 (stereo not drawn) [Compound 39] | > 7.30 |
| COc1ccc2c(OC3CC4C(=O)NC5(C(=O)NS(=O)(=O)C6(C)CC6)CC5C=CCOCCCC(NC(=O)NC5CCCC5)C(=O)N4C3)nccc2c1 (stereo not drawn) [Compound 36] | > 7.30 |
| CCC1(S(=O)(=O)NC(=O)C23CC2C=CCCCSCC(NC(=O)OC(C)C)C(=O)N2CC(Oc4nccc5cc(OC)ccc45)CC2C(=O)N3)CC1 (stereo not drawn) [Compound 44] | > 7.30 |
| CC(C)(C)OC(=O)N[C@H]1CN(S(=O)(=O)c2ccccc2[N+](=O)[O-])CCC/C=C\[C@@H]2C[C@@]2(C(=O)O)NC(=O)[C@@H]2C[C@@H](Oc3nccc4ccccc34)CN2C1=O [Compound 144] | 4.30 to 5.30 |
| COc1ccc2c(O[C@@H]3C[C@H]4C(=O)N[C@]5(C(=O)O)C[C@H]5/C=C\CCCOC[C@H](NC(=O)OC(C)(C)C)C(=O)N4C3)nccc2c1 [Compound 84, (1S,4R,6S,14S,18R)-7-cis-14-tert-Butoxycarbonylamino-18-(6-methoxyisoquinolin-1-yloxy)-2,15-dioxo-12-oxa-3,16-diazatricyclo[14.3.0.0^4,6]-nonadec-7-ene-4-carboxylic acid] | 5.30 to 6.30 |
| COc1ccc2c(OC3CC4C(=O)NC5(C(=O)NS(=O)(=O)C6(C)CC6)CC5C=CCOCCCC(NC(=O)OC(C)(C)C)C(=O)N4C3)nccc2c1 (stereo not drawn) [Compound 29] | > 7.30 |
| CC(C)(C)OC(=O)N[C@H]1CCCCCCC[C@@H]2C[C@@]2(C(=O)NS(=O)(=O)C2CC2)NC(=O)[C@@H]2C[C@@H](Oc3nccc4ccccc34)CN2C1=O [Compound 10, [4-Cyclopropanesulfonylaminocarbonyl-18-(isoquinolin-1-yloxy)-2,15-dioxo-3,16-diaza-tricyclo[14.3.0.0^4,6]nonadec-14-yl]-carbamic acid tert-butyl ester] | > 7.30 |
| COc1ccc2c(OC3CC4C(=O)NC5(C(=O)NS(=O)(=O)C6CC6)CC5C=CCCCOC(C)C(NC(=O)OC(C)C)C(=O)N4C3)nccc2c1 (stereo not drawn) [Compound 64] | 6.30 to 7.30 |
| CC1(OC(=O)NC2CCCCCC=CC3CC3(C(=O)NS(=O)(=O)C3CC3)NC(=O)C3CC(Oc4nccc5ccccc45)CN3C2=O)CCCC1 (stereo not drawn) [Compound 50] | > 7.30 |
| CCC1(S(=O)(=O)NC(=O)C23CC2C=CCOCCCC(NC(=O)NC2CCCC2)C(=O)N2CC(Oc4nccc5cc(OC)ccc45)CC2C(=O)N3)CC1 (stereo not drawn) [Compound 38] | > 7.30 |

Same assay, conditions: Hepatitis C virus, Huh-7; read-out: EC50 value in the replicon assay

| SMILES | pEC50 |
| --- | --- |
| CC(C)(C)OC(=O)N[C@H]1CCCCC/C=C\[C@@H]2C[C@@]2(C(=O)NS(C)(=O)=O)NC(=O)[C@@H]2C[C@@H](Oc3nccc4ccccc34)CN2C1=O [Compound 2, [18-(Isoquinolin-1-yloxy)-4-methanesulfonylaminocarbonyl-2,15-dioxo-3,16-diaza-tricyclo[14.3.0.0^4,6]nonadec-7-en-14-yl]-carbamic acid tert-butyl ester] | 6.84 |
